Experimental data reported in the supplement of paper PMC4862054.

The molecules below were run on CAL-51 (assay: normalised response (% of control), CellTiter-Glo; higher = more viable cells (100 = DMSO, 0 = benzethonium chloride kill control)). Conditions: incubation time: 72 h.
Method in brief: (§1)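 Every value is a normalised signal taken at one concentration of a dilution series. Compound was placed in 384-well plates at 5 concentrations in 10-fold steps over a compound-specific 10,000-fold range, and 20 µl of breast cancer cell suspension was seeded onto it. After 72 h, CellTox Green fluorescence (485/520 nm) was measured first and CellTiter-Glo luminescence second, following 10 min at room temperature. Each plate was scaled to 0.1 % DMSO (100) and a positive kill control (0).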

First: COc1cc2ncnc(Nc3ccc(F)c(Cl)c3)c2cc1NC(=O)/C=C/CN1CCCCC1 [Dacomitinib] (100 nM)
Second: CS(=O)(=O)c1ccc(C2=C(c3ccccc3)C(=O)OC2)cc1 [Rofecoxib] (1000 nM)
The normalised response of the first is higher: 112% for the first, 104% for the second.

What follows are molecules tested on HCC1937 in the same assay as above. Conditions: incubation time: 72 h.
Method in brief: as §1

First: CC(C)Cn1cnc2c(N)nc3ccccc3c21 [Imiquimod] (250 nM)
Second: CS(=O)(=O)c1ccc(C2=C(c3ccccc3)C(=O)OC2)cc1 [Rofecoxib] (1000 nM)
The normalised response of the first is lower: 93% for the first, 97% for the second.

First: O=C(CCCCCCC(=O)Nc1ccc([C@H]2O[C@@H](CSc3nc(-c4ccccc4)c(-c4ccccc4)o3)C[C@@H](c3ccc(CO)cc3)O2)cc1)NO [Tubacin] (1000 nM)
Second: COc1cc2ncnc(Nc3ccc(F)c(Cl)c3)c2cc1NC(=O)/C=C/CN1CCCCC1 [Dacomitinib] (100 nM)
The normalised response of the first is lower: 82.6% for the first, 93.3% for the second.

What follows are molecules tested on MDA-MB-468 in the same assay as above. Conditions: incubation time: 72 h.
Method in brief: as §1

Going from `CC(C)Cn1cnc2c(N)nc3ccccc3c21` [Imiquimod] (250 nM) to `CS(=O)(=O)c1ccc(C2=C(c3ccccc3)C(=O)OC2)cc1` [Rofecoxib] (1000 nM), the normalised response rises from 97% to 103%.

Compared with `O=C(CCCCCCC(=O)Nc1ccc([C@H]2O[C@@H](CSc3nc(-c4ccccc4)c(-c4ccccc4)o3)C[C@@H](c3ccc(CO)cc3)O2)cc1)NO` [Tubacin] (1000 nM), `COc1cc2ncnc(Nc3ccc(F)c(Cl)c3)c2cc1NC(=O)/C=C/CN1CCCCC1` [Dacomitinib] (100 nM) is higher in normalised response: 61.7% for the first, 87.1% for the second.

Each molecule was assayed on MFM-223 in the same assay as above. Conditions: incubation time: 72 h.
Method in brief: as §1

Compared with `CC(C)Cn1cnc2c(N)nc3ccccc3c21` [Imiquimod] (250 nM), `CS(=O)(=O)c1ccc(C2=C(c3ccccc3)C(=O)OC2)cc1` [Rofecoxib] (1000 nM) is higher in normalised response: 101% for the first, 104% for the second.

Compared with `O=C(CCCCCCC(=O)Nc1ccc([C@H]2O[C@@H](CSc3nc(-c4ccccc4)c(-c4ccccc4)o3)C[C@@H](c3ccc(CO)cc3)O2)cc1)NO` [Tubacin] (1000 nM), `COc1cc2ncnc(Nc3ccc(F)c(Cl)c3)c2cc1NC(=O)/C=C/CN1CCCCC1` [Dacomitinib] (100 nM) is higher in normalised response: 78.3% for the first, 105% for the second.

The molecules below were run on SK-BR-3 in the same assay as above. Conditions: incubation time: 72 h.
Method in brief: as §1

Going from `CC(C)Cn1cnc2c(N)nc3ccccc3c21` [Imiquimod] (250 nM) to `CS(=O)(=O)c1ccc(C2=C(c3ccccc3)C(=O)OC2)cc1` [Rofecoxib] (1000 nM), the normalised response rises from 105% to 116%.

First: O=C(CCCCCCC(=O)Nc1ccc([C@H]2O[C@@H](CSc3nc(-c4ccccc4)c(-c4ccccc4)o3)C[C@@H](c3ccc(CO)cc3)O2)cc1)NO [Tubacin] (1000 nM)
Second: COc1cc2ncnc(Nc3ccc(F)c(Cl)c3)c2cc1NC(=O)/C=C/CN1CCCCC1 [Dacomitinib] (100 nM)
The normalised response of the first is higher: 95.3% for the first, 36.1% for the second.

The molecules below were run on MDA-MB-231 in the same assay as above. Conditions: incubation time: 72 h.
Method in brief: as §1

Going from `CC(C)Cn1cnc2c(N)nc3ccccc3c21` [Imiquimod] (250 nM) to `CS(=O)(=O)c1ccc(C2=C(c3ccccc3)C(=O)OC2)cc1` [Rofecoxib] (1000 nM), the normalised response rises from 105% to 107%.

Going from `O=C(CCCCCCC(=O)Nc1ccc([C@H]2O[C@@H](CSc3nc(-c4ccccc4)c(-c4ccccc4)o3)C[C@@H](c3ccc(CO)cc3)O2)cc1)NO` [Tubacin] (1000 nM) to `COc1cc2ncnc(Nc3ccc(F)c(Cl)c3)c2cc1NC(=O)/C=C/CN1CCCCC1` [Dacomitinib] (100 nM), the normalised response rises from 81.4% to 97.5%.

What follows are molecules tested on Hs578T in the same assay as above. Conditions: incubation time: 72 h.
Method in brief: as §1

First: CC(C)Cn1cnc2c(N)nc3ccccc3c21 [Imiquimod] (250 nM)
Second: CS(=O)(=O)c1ccc(C2=C(c3ccccc3)C(=O)OC2)cc1 [Rofecoxib] (1000 nM)
The normalised response of the first is lower: 98.7% for the first, 112% for the second.

First: O=C(CCCCCCC(=O)Nc1ccc([C@H]2O[C@@H](CSc3nc(-c4ccccc4)c(-c4ccccc4)o3)C[C@@H](c3ccc(CO)cc3)O2)cc1)NO [Tubacin] (1000 nM)
Second: COc1cc2ncnc(Nc3ccc(F)c(Cl)c3)c2cc1NC(=O)/C=C/CN1CCCCC1 [Dacomitinib] (100 nM)
The normalised response of the first is lower: 95.3% for the first, 101% for the second.

These molecules were tested on HCC1599 in the same assay as above. Conditions: incubation time: 72 h.
Method in brief: as §1

Going from `CC(C)Cn1cnc2c(N)nc3ccccc3c21` [Imiquimod] (250 nM) to `CS(=O)(=O)c1ccc(C2=C(c3ccccc3)C(=O)OC2)cc1` [Rofecoxib] (1000 nM), the normalised response rises from 104% to 118%.

Compared with `O=C(CCCCCCC(=O)Nc1ccc([C@H]2O[C@@H](CSc3nc(-c4ccccc4)c(-c4ccccc4)o3)C[C@@H](c3ccc(CO)cc3)O2)cc1)NO` [Tubacin] (1000 nM), `COc1cc2ncnc(Nc3ccc(F)c(Cl)c3)c2cc1NC(=O)/C=C/CN1CCCCC1` [Dacomitinib] (100 nM) is higher in normalised response: 93.2% for the first, 110% for the second.

The molecules below were run on HDQ-P1 in the same assay as above. Conditions: incubation time: 72 h.
Method in brief: as §1

First: CC(C)Cn1cnc2c(N)nc3ccccc3c21 [Imiquimod] (250 nM)
Second: CS(=O)(=O)c1ccc(C2=C(c3ccccc3)C(=O)OC2)cc1 [Rofecoxib] (1000 nM)
The normalised response of the first is lower: 97.7% for the first, 100% for the second.

First: O=C(CCCCCCC(=O)Nc1ccc([C@H]2O[C@@H](CSc3nc(-c4ccccc4)c(-c4ccccc4)o3)C[C@@H](c3ccc(CO)cc3)O2)cc1)NO [Tubacin] (1000 nM)
Second: COc1cc2ncnc(Nc3ccc(F)c(Cl)c3)c2cc1NC(=O)/C=C/CN1CCCCC1 [Dacomitinib] (100 nM)
The normalised response of the first is higher: 88.2% for the first, 68.6% for the second.

What follows are molecules tested on HCC1143 in the same assay as above. Conditions: incubation time: 72 h.
Method in brief: as §1

Going from `CC(C)Cn1cnc2c(N)nc3ccccc3c21` [Imiquimod] (250 nM) to `CS(=O)(=O)c1ccc(C2=C(c3ccccc3)C(=O)OC2)cc1` [Rofecoxib] (1000 nM), the normalised response rises from 101% to 103%.

First: O=C(CCCCCCC(=O)Nc1ccc([C@H]2O[C@@H](CSc3nc(-c4ccccc4)c(-c4ccccc4)o3)C[C@@H](c3ccc(CO)cc3)O2)cc1)NO [Tubacin] (1000 nM)
Second: COc1cc2ncnc(Nc3ccc(F)c(Cl)c3)c2cc1NC(=O)/C=C/CN1CCCCC1 [Dacomitinib] (100 nM)
The normalised response of the first is lower: 90.2% for the first, 94.9% for the second.

The molecules below were run on MDA-MB-453 in the same assay as above. Conditions: incubation time: 72 h.
Method in brief: as §1

Compared with `CC(C)Cn1cnc2c(N)nc3ccccc3c21` [Imiquimod] (250 nM), `CS(=O)(=O)c1ccc(C2=C(c3ccccc3)C(=O)OC2)cc1` [Rofecoxib] (1000 nM) is lower in normalised response: 107% for the first, 97% for the second.

Compared with `O=C(CCCCCCC(=O)Nc1ccc([C@H]2O[C@@H](CSc3nc(-c4ccccc4)c(-c4ccccc4)o3)C[C@@H](c3ccc(CO)cc3)O2)cc1)NO` [Tubacin] (1000 nM), `COc1cc2ncnc(Nc3ccc(F)c(Cl)c3)c2cc1NC(=O)/C=C/CN1CCCCC1` [Dacomitinib] (100 nM) is higher in normalised response: 70.3% for the first, 72.7% for the second.

What follows are molecules tested on MDA-MB-436 in the same assay as above. Conditions: incubation time: 72 h.
Method in brief: as §1

Going from `CC(C)Cn1cnc2c(N)nc3ccccc3c21` [Imiquimod] (250 nM) to `CS(=O)(=O)c1ccc(C2=C(c3ccccc3)C(=O)OC2)cc1` [Rofecoxib] (1000 nM), the normalised response rises from 101% to 105%.

Compared with `O=C(CCCCCCC(=O)Nc1ccc([C@H]2O[C@@H](CSc3nc(-c4ccccc4)c(-c4ccccc4)o3)C[C@@H](c3ccc(CO)cc3)O2)cc1)NO` [Tubacin] (1000 nM), `COc1cc2ncnc(Nc3ccc(F)c(Cl)c3)c2cc1NC(=O)/C=C/CN1CCCCC1` [Dacomitinib] (100 nM) is lower in normalised response: 94.8% for the first, 92.1% for the second.
